One molecule from patent US20230140216A1, “COMBINATION THERAPY FOR TREATING MPS1” (GAIN THERAPEUTICS SA, priority 2020, published 2023) can be followed below.

Experiment [1] addresses T1, Recombinant human α-L-iduronidase protein (Homo sapiens, UniProt P35475).
T1 construct: Ala26-Pro653 with a C-terminal 10_His tag; 10xHis (C); host or cells: HEK293f (stated in b1366 for the UAB protein)
T1 sequence (P35475 26-653): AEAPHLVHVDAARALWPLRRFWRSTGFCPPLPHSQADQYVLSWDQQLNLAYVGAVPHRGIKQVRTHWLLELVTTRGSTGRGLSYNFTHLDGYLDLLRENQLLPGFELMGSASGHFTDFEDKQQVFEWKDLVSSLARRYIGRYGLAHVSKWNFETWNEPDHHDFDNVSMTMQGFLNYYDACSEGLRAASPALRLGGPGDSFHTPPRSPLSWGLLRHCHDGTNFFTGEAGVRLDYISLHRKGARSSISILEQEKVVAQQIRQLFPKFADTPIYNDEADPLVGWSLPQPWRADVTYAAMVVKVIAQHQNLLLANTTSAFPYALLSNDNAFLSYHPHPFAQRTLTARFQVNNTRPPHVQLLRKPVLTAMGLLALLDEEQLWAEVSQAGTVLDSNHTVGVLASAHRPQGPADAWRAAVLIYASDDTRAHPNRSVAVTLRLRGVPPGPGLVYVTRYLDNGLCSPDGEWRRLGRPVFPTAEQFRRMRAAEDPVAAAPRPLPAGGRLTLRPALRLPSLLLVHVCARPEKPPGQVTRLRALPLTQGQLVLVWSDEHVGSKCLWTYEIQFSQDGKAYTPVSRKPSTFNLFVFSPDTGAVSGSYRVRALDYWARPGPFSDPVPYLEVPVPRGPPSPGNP
As to the kind of experiment: Denaturation prevention assay in neutral pH buffer. It is filed as biochemical. To be noted: 30 µM compound, pH 7, 37° C. As to the method:
The capacity of Compounds of the Disclosure to stabilize α-L-iduronidase in neutral pH buffer was assessed using the denaturation prevention assay.
Briefly, recombinant human α-L-iduronidase protein (obtained in the Institute of Biotechnology and Biomedicine in the UAB, Bellaterra, Spain) was combined at a final concentration of 1 µM with 5X of SYPRO Orange and 30 µM of the corresponding compound in a final reaction volume of 25 µL in 100 mM Hepes 20 mM MgCl2 pH 7 buffer. Reactions were incubated at 37° C. and SYPRO Orange fluorescence intensity was monitored at the indicated time points using Glomax® Discover Microplate Reader from Promega (Madison, WI, USA).
The compound referred to as Compound A throughout this specification is the compound of Example 8 described above. […] (T=37° C.).

For experiment [2], the system named is Patient-derived fibroblasts. As to the kind of experiment: Enzyme enhancement activity in combination with rhIDUA in patient-derived fibroblasts. The class given is cell-based, human. The protocol:
Patient-derived fibroblasts were seeded at 4×10^4 cells per well in 12-well cell culture plates in Dulbecco’s Modified Eagle’s Media (DMEM) supplemented with 10% of fetal bovine serum (FBS), 1% penicillin/streptomycin (P/S) (Thermo Fisher Scientific, Waltham, MA, USA) and incubated at 37° C., 5% CO2 overnight for cell attachment. Subsequently, cells were incubated in the absence or presence of the compounds and/or 1.25 nM recombinant human α-L-iduronidase protein (obtained in the Institute of Biotechnology and Biomedicine in the UAB) for 4 days. After incubation, cells were washed with phosphate-buffered saline (“PBS”) and detached using Trypsin-EDTA solution (Sigma Aldrich, St. Louis, MO, USA) to prepare cell pellets. The pellets were stored at -80° C. until activity assays were performed. α-L-iduronidase activity in cell lysates was measured by using 4-methylumbelliferyl alpha-L-iduronide substrate (Glycosynth, Warrington, UK). Briefly, lysates were resuspended in 25 µL of 0.9% NaCl containing 0.01% triton X-100 lysis buffer to promote membrane disruption. The cell suspension was sonicated and centrifuged to remove insoluble materials. Then, lysates were mixed with 25 µL of 200 µM 4-MU- alpha-L-iduronide substrate in 0.4 M sodium formate pH 3.5 0.2% triton X-100 buffer for 60 min at 37° C. The reaction was terminated by adding 200 µL of 0.5 M Glycine/0.3M NaOH buffer pH=10. The liberated 4-MU was measured on a Glomax® Discover Microplate Reader from Promega with excitation at 340 nm and emission at 460 nm. Protein quantification was determined using Pierce BCA Protein Assay Kit (Thermo Fisher Scientific, Waltham, MA, USA). Measurements were interpolated in a 4-MU standard curve and normalized by protein quantity.
Compound A increases uptake of rhIDUA protein and its enzymatic activity under a wide range of conditions (rhIDUA concentration and cell-types). Benefits are particularly evident at longer incubation times (4 days).

The target in experiment [3] is T2, Aldurazyme (laronidase) IDUA activity in bone joint cartilage (Homo sapiens, UniProt P35475).
T2 construct: purchased Aldurazyme; host or cells: administered i.v. to C57BL/6 male mice
T2 sequence (P35475 26-653 limits assumed): T1 sequence (P35475 26-653)
As to the kind of experiment: IDUA assay in bone joint cartilage after i.v. Aldurazyme with or without compound. It is filed as in vivo, C57BL/6 male mice. To be noted: mice, compound i.v. + Aldurazyme 1.2 mg/kg i.v. As to the method: Evaluation of IDUA activity in mouse bone joint cartilage samples obtained from BIO-PCY-19-025 study, where C57BL/6 male mice were administered with 1.2 mg/kg Aldurazyme (i.v. bolus administration) in the presence and absence of Compound A.
Groups Details: • G1: Vehicle 2 +Aldurazyme (1.2 mg/kg,i.v.,) QD×1(n=6) [vehicle 2:NMP (5%) + Solutol HS-15 (5%) + Normal saline (45%) + PEG-400 (45%)]; • G2: Compound A (5 mg/kg, i.v.) + Aldurazyme (1.2 mg/kg, i.v.) QD x 1 (n=6); • G3: Compound A (10 mg/kg, i.v.) + Aldurazyme (1.2 mg/kg, i.v.) QD x 1 (n=6); • G4: Compound A (20 mg/kg, i.v.) + Aldurazyme (1.2 mg/kg, i.v.) QD x 1 (n=6); and • G5: Naïve Control (n=6).
Bone joint cartilage samples from mice were collected at indicated time points. Tissues were homogenized in RIPA buffer, protein was extracted was diluted in water. Total protein was estimated using Bradford reagent. 25 µl of tissue homogenate and plasma samples were added to 25 µl of 0.18 mM of 4 MUI substrate and incubated at 37° C. for 30 min. Reaction was terminated using 200 µl of stop solution (0.3 M Glycine and 0.2 M sodium carbonate, pH 10.4). Plate was read at excitation 355 nm and emission 460 nm. […]
IDUA activity was assessed from 4-MU standard curve. […] Final IDUA enzyme activity was expressed as nmols/mg of protein/hr. Data was analyzed using GraphPad prism software with one way ANOVA followed by Dunnett’s comparison test. […]

Take `CCN(CC(=O)Nc1c(Cl)cccc1Cl)Cc1nc2ccsc2c(=O)[nH]1` [Compound A]: in experiment [1], the “prevention of pH-induced IDUA denaturation” value is “slows down pH-induced denaturation”. In addition, in experiment [2] (96h), the “activity across a panel of patient-derived fibroblasts” value is “active across a panel of patient-derived fibroblasts” and the “amount of α-L-iduronidase in fibroblasts” value is reported as “increases the amount of α-L-iduronidase in fibroblasts”. The EC50 in experiment [2] (Homo sapiens, Fibroblast, fibroblasts, 96h, co-administration with rhIDUA, read-out: cell-based EC50 (IDUA activity/uptake with rhIDUA)) came to 16 µM. Also, the “IDUA cell uptake on co-administration” value in experiment [2] (Hurler-Scheie fibroblasts, 50 µM compound, 96h, vs. single agent) is given as “marked increase of IDUA cell uptake”. In addition, the “effect versus incubation time” value in experiment [2] (fibroblasts) is on record as “increases at longer incubation times”. Also, the “IDUA enzymatic activity in bone joint cartilage” value in experiment [3] is listed as “increases IDUA enzymatic activity in a panel of tissues”.
